According to US20240246964A1 (Arbutus Biopharma Corporation, priority 2021, published 2024):

What was measured:
[1] = target: PD-L1 His protein / PD-1 Fc protein (Homo sapiens (Human), UniProt Q9NZQ7); experiment: HTRF Assay (PD-1/PD-L1 interaction); type: binding; settings: PD-L1 His 6 nM, PD-1 Fc 6 nM
[2] = target: human PD-L1 (Homo sapiens (Human), UniProt Q9NZQ7); experiment: T cell activation luciferase reporter cell culture system (T Cell Activation Assay); type: cell-based; settings: luciferase reporter assay; PD-L1 aAPC/CHO-K1 cells with PD-1 effector Jurkat T cells
Sequence of human PD-L1 (Q9NZQ7 19-290): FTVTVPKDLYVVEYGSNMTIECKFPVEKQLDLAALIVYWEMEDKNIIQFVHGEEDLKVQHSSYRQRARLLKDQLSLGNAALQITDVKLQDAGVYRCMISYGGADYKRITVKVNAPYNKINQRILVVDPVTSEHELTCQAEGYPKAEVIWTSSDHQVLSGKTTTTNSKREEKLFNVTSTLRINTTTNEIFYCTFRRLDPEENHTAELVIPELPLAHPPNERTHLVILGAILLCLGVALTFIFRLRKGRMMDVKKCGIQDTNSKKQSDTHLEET

Sequence of PD-L1 His protein / PD-1 Fc protein (Q9NZQ7 19-238): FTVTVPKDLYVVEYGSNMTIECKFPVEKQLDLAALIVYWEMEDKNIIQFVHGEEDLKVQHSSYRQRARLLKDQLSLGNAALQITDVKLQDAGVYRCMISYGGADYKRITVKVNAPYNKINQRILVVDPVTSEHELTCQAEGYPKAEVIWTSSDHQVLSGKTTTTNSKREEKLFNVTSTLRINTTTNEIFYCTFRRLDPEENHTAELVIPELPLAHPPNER

Row | Compound | IC50 [1] [nM] | EC50 [2] [nM]
1 | COc1cc(-c2nccc(-c3cccc(-c4ccc(CN5CC6(CNC(=O)C6)C5)c(OC)n4)c3Cl)c2Cl)ccc1CN1CC2(C1)CN(C(C)=O)C2 [Example 493, 2-((6-(3-(2-(4-((6-Acetyl-2,6-diazaspiro[3.3]heptan-2-yl)methyl)-3-methoxyphenyl)-3-chloropyridin-4-yl)-2-chlorophenyl)-2-methoxypyridin-3-yl)methyl)-2,6-diazaspiro[3.4]octan-7-one] | 0.76 | 19.2
2 | COc1cc(-c2nccc(-c3cccc(-c4ccc(CNC5CCOCC5)c(OC)n4)c3F)c2Cl)ccc1CNC1CCOCC1 [Example 440, N-((6-(3-(3-Chloro-2-(3-methoxy-4-(((tetrahydro-2H-pyran-4-yl)amino)-methyl)phenyl)pyridin-4-yl)-2-fluorophenyl)-2-methoxypyridin-3-yl)methyl)tetrahydro-2H-pyran-4-amine] | 9.97 | 214
3 | COc1cc(-c2nccc(-c3ccnc(-c4cc(F)c(CNC[C@@H]5CCC(=O)N5)c(OC)c4)c3Cl)c2Cl)cc(F)c1CNC[C@@H]1CCC(=O)N1 [Compound 12, (5S,5′S)-5,5′-(((((3,3′-dichloro-[4,4′-bipyridine]-2,2′-diyl)bis(2-fluoro-6-methoxy-4,1-phenylene))bis(methylene))bis(azanediyl))bis(methylene))bis(pyrrolidin-2-one)] | 0.1 | 67.1
4 | COc1nc(-c2cccc(-c3ccnc(-c4ccc5c(CN6CC7(CNC(=O)C7)C6)nn(C)c5c4)c3Cl)c2Cl)ccc1CNC[C@@H]1CCC(=O)N1 [Example 288, (S)-2-((6-(3-Chloro-4-(2-chloro-3-(6-methoxy-5-((((5-oxopyrrolidin-2-yl)methyl)amino)methyl)pyridin-2-yl)phenyl)pyridin-2-yl)-1-methyl-1H-indazol-3-yl)methyl)-2,6-diazaspiro[3.4]octan-7-one] | 2.33 | 52.7
5 | CNCc1ccc(-c2cccc(-c3ccnc(-c4ccc(CNCC56CC(C(=O)O)(C5)C6)c(OC)c4)c3Cl)c2Cl)nc1OC [Compound 228, 3-(((4-(3-chloro-4-(2-chloro-3-(6-methoxy-5-((methylamino)methyl)pyridin-2-yl)phenyl)pyridin-2-yl)-2-methoxybenzyl)amino)methyl)bicyclo[1.1.1]pentane-1-carboxylic acid] | 0.23 | 75.5
6 | COc1cc(-c2nccc(-c3cccc(-c4ccc5c(CN(C)CCO)cn(C)c5n4)c3Cl)c2Cl)ccc1CNC[C@@H]1CCC(=O)N1 [Compound 101, (S)-5-(((4-(3-chloro-4-(2-chloro-3-(3-(((2-hydroxyethyl)(methyl)amino)methyl)-1-methyl-1H-pyrrolo[2,3-b]pyridin-6-yl)phenyl)pyridin-2-yl)-2-methoxybenzyl)amino)methyl)pyrrolidin-2-one] | 0.5 | 31
7 | COc1cc(-c2ccnc(-c3cccc(-c4ccc(CNC5CCN(C(C)=O)CC5)c(OC)n4)c3Cl)c2Cl)ccc1CNC1CCN(C(C)=O)CC1 [Compound 621, 1-(4-(((6-(3-(4-(4-(((1-Acetylpiperidin-4-yl)amino)methyl)-3-methoxyphenyl)-3-chloropyridin-2-yl)-2-chlorophenyl)-2-methoxypyridin-3-yl)methyl)amino)piperidin-1-yl)ethan-1-one] | 1.54 | 303
8 | COc1cc(-c2nccc(-c3cccc(-c4ccc(CN5CC6(CNC(=O)C6)C5)c(OC)n4)c3Cl)c2Cl)ccc1CN1CC2(CNC2)C1 [Example 494, 2-((6-(3-(2-(4-((2,6-Diazaspiro[3.3]heptan-2-yl)methyl)-3-methoxyphenyl)-3-chloropyridin-4-yl)-2-chlorophenyl)-2-methoxypyridin-3-yl)methyl)-2,6-diazaspiro[3.4]-octan-7-one] | 5.21 | 61.7
